From patent publication US20250255929A1, “METHODS FOR REDUCING RISKS ASSOCIATED WITH HEART FAILURE AND FACTORS ASSOCIATED THEREWITH” (Stealth BioTherapeutics Inc., priority 2012, published 2025) come the findings set out here.

Where “and” joins values, the source holds several entries; their conditions need not be identical. Equal values may be shown once. Square brackets hold non-standard residues; d marks the D form. Ends that are not written are not given here. Dmt = Cc1cc(O)cc(C)c1C[C@H](N)C(=O)O

What all share (type): in vivo
One test has as its system interleukin-6 (IL-6). As to the kind of experiment: Plasma IL-6 (double antibody sandwich ELISA) in dog model of heart failure. To be noted: for plasma IL-6 levels (FIG. 3), in words: HF dogs. The procedure: The methods of Example 1 were used to induce heart failure, administer peptide or vehicle and collect plasma. Fourteen dogs were used in this example. Half the dogs were treated with the mitochondrial peptide; the other half were treated with drug vehicle and served as controls. Peptide treatment was started in both groups upon induction of heart failure (HF), defined as left ventricular ejection fraction of approximately 30%.
IL-6 was quantified in EDTA-plasma using the double antibody sandwich ELISA technique. Briefly, IL-6 (Canine IL-6 Duo Set, Cat #DY1609) was purchased from R&D Systems. The assay was performed based on instructions provided by the supplier with minor modifications. The amount of EDTA-plasma incubated with the antibody plate was 150 μl and incubation time was 18 hours at 4° C. Using standard curves and software, the concentration of IL-6 was expressed as pg/ml.

A further test relates to TNF-alpha. The test can be described thus: Plasma TNF-alpha (double antibody sandwich ELISA) in dog model of heart failure. The settings on record: for plasma TNF-alpha levels (FIG. 4), in words: HF dogs. The procedure:
The methods of Example 1 was used induce heart failure, administer peptide or vehicle, and to collect plasma samples for analysis. Fourteen dogs were used in this example. Half the dogs were treated with the peptide; the other half were treated with drug vehicle and served as controls. Peptide treatment was started in both groups upon induction of heart failure (HF), defined as left ventricular ejection fraction of approximately 30%.
TNF-alpha was quantified in EDTA-plasma using a double antibody sandwich ELISA. Briefly, TNF-alpha (Canine TNFα Duo Sett, Cat #DY1507) was purchased from R&D Systems. The assay was performed based on instructions provided by the supplier with minor modifications. The amount of EDTA-plasma incubated with antibody plate was 150 μl and incubation time was 18 hours at 4° C. Using standard curves and software, the concentration of TNFα was expressed as pg/ml.

The next test has as its system MLCL AT1. As to the kind of experiment: MLCL AT1 mRNA in LV tissue (real-time PCR), dog model of heart failure. The settings on record: LV tissue of HF dogs, 3 months, 0.5 mg/kg once daily s.c., n=6; untreated HF increased 2.60-fold vs normal; normalized to GAPDH. The method, then:
Heart failure was induced in dogs via multiple sequential intracoronary microembolizations as described in Sabbah, et al., Am J Physiol. (1991) 260:H1379-84, herein incorporated by reference in its entirety.
Twelve dogs were subject to coronary microembolization-induced heart failure (LV ejection fraction ˜30%) as described in Example 1. […] RNA was prepared from LV tissue of all 12 dogs at the end of the treatment phase and from the LV of 6 normal (NL) dogs for comparison. mRNA levels of Taz1, MLCL AT1 and ALCAT1 were determined by real-time PCR. Changes in mRNA expression were expressed as fold changes using the CT Method with normalization to […] (GAPDH) as internal control.

The mark [1] stands for this setting: plasma, individual HF dogs, 6 weeks after initiating therapy.
The mark [2] stands for this setting: plasma, individual HF dogs, 12 weeks after initiating therapy.
Where [3] appears, read: plasma, mean of 7 HF dogs, 6 weeks after initiating therapy.
The mark [4] stands for this setting: plasma, mean of 7 HF dogs, 12 weeks after initiating therapy.
Setting [5] is: plasma, peptide group mean (7 dogs), baseline (before HF and treatment).
Setting [6] is: plasma, peptide group mean (7 dogs), heart failure prior to initiating therapy.
The mark [7] stands for this setting: plasma, peptide group, individual dogs, baseline (before HF and treatment).
The mark [8] stands for this setting: plasma, peptide group, individual dogs, heart failure prior to initiating therapy.

Take “D-Arg-2′,6′-Dmt-Lys-Phe-NH2 ([dR][Dmt]KF-NH2) [aromatic-cationic peptide]”: the “plasma IL-6 levels (FIG. 3), in words” value in the test on interleukin-6 (IL-6) (treatment for 12 weeks) was “near normal levels”; in the test with interleukin-6 (IL-6) (treatment for six weeks) it was “reduced IL-6 levels”. In the test with interleukin-6 (IL-6) (setting [1]), the “IL-6 concentration, 6 Wk” value is 18.8 pg/ml and 23.4 pg/ml and 24.3 pg/ml and 19.5 pg/ml and 19.6 pg/ml (2×) and 20.5 pg/ml. Moreover, the “IL-6 concentration, 12 Wk” value with interleukin-6 (IL-6) (setting [2]) was 11.7 pg/mL and 11.3 pg/mL and 13.6 pg/mL and 11.5 pg/mL and 12.5 pg/mL and 11.9 pg/mL and 11.4 pg/mL. The “IL-6 concentration, 6 Wk, Mean” value with interleukin-6 (IL-6) (setting [3]) stood at 20.8 pg/mL. For the same substance, in the test on interleukin-6 (IL-6) (setting [4]), the “IL-6 concentration, 12 Wk, Mean” value turned out to be 12.0 pg/mL. Further, in the test with interleukin-6 (IL-6) (setting [5]), the “IL-6 concentration, BL, Mean” value is 10.1 pg/mL. Moreover, the “IL-6 concentration, PRE, Mean” value in the test with interleukin-6 (IL-6) (setting [6]) is 26.6 pg/mL. In addition, the “IL-6 concentration, BL” value in the test with interleukin-6 (IL-6) (setting [7]) was 9.1 pg/mL and 5.8 pg/mL and 7.0 pg/mL and 12.6 pg/mL and 10.3 pg/mL and 12.5 pg/mL and 13.0 pg/mL. Also, the “IL-6 concentration, PRE” value in the test on interleukin-6 (IL-6) (setting [8]) is 29.3 pg/mL and 18.5 pg/mL and 29.2 pg/mL and 18.0 pg/mL and 31.2 pg/mL and 29.4 pg/mL and 30.4 pg/mL. In addition, the “plasma TNF-alpha levels (FIG. 4), in words” value with TNF-alpha (treatment for 12 weeks) is listed as “near normal levels”; with TNF-alpha (treatment for six weeks), “reduced TNF-alpha levels”. Besides, the “TNF-α concentration, 6 Wk” value in the test on TNF-alpha (setting [1]) was 3.27 pg/mL and 3.08 pg/mL and 3.50 pg/mL and 3.16 pg/mL and 3.72 pg/mL and 3.12 pg/mL and 2.60 pg/mL. For the same substance, the “TNF-α concentration, 12 Wk” value with TNF-alpha (setting [2]) is 1.14 pg/mL and 1.42 pg/mL and 1.18 pg/mL and 1.75 pg/mL and 1.69 pg/mL and 1.53 pg/mL and 1.35 pg/mL. The “TNF-α concentration, 6 Wk, Mean” value in the test on TNF-alpha (setting [3]) worked out at 3.21 pg/mL. Besides, the “TNF-α concentration, 12 Wk, Mean” value with TNF-alpha (setting [4]) was found to be 1.44 pg/mL. Further, in the test on TNF-alpha (setting [5]), the “TNF-α concentration, BL, Mean” value was 1.24 pg/mL. For the same substance, in the test on TNF-alpha (setting [6]), the “TNF-α concentration, PRE, Mean” value came to 4.36 pg/mL. In the test on TNF-alpha (setting [7]), the “TNF-α concentration, BL” value was 0.90 pg/mL and 0.97 pg/mL and 1.02 pg/mL and 1.85 pg/mL and 1.30 pg/mL and 1.11 pg/mL and 1.54 pg/mL. In addition, in the test on TNF-alpha (setting [8]), the “TNF-α concentration, PRE” value is 4.26 pg/ml (2×) and 3.96 pg/ml and 4.69 pg/ml and 4.59 pg/ml and 4.31 pg/ml and 4.42 pg/ml. Also, the “MLCL AT1 mRNA: reduced increase, fold” value in the test with MLCL AT1 is 1.18 fold.
